Laboratory results reported in patent publication US20100227907A1, “Method of Treating Pain by Using Opioids and CAMKIV Inhibitors” (priority 2005, published 2010).

What was measured:
[1] = tested on: CREB activity in HEK293 cells expressing CaMKIV; assay: Ionomycin stimulation of CREB activity (luciferase reporter) in HEK293 cells expressing CaMKIV; format: cell-based; conditions: 5 μM ionomycin, n=4 wells, p<0.0001
Method: (§1) HEK293 cells were seeded into 96-well plates. The next day, cells were cotransfected with the CaMKIV construct, pGL3-CRE-firefly luciferase and pGL3-CMV-Renilla luciferase constructs using Lipofectamine 2000 reagent (Invitrogen, CA) according to the manufacturer's recommendation. The following day, cells were treated with fresh medium containing DMSO as vehicle control or 5 μM ionomycin (Sigma, Mo.) in the presence or absence of KN62 or KN93 (Sigma, MO) at serial concentrations. Cells were harvested 16 h later. Luciferase activity was assayed with cell lysis by using the dual-luciferase reporter assay system (Promega, WI) according to the manufacturer's protocol.
The dose-dependent inhibitory effect of KN62 and KN93 on CaMKIV transiently expressed in HEK293 cells was determined. CaMKIV can activate CREB and stimulate CREB-mediated transcription through the direct phosphorylation of CREB on Ser-133. To measure the CaMKIV activity by CREB activity assay, the CaMKIV expression plasmids and a CREB luciferase reporter system were cotransfected into HEK293 cells in this study. The calcium ionophore ionomycin treatment can lead to an increase in intracellular Ca^2+ and Ca^2+/CaM levels, which influence CaMKIV activity in cells. Ionomycin (5 μM) can dramatically increase CREB activity in HEK293 cells expressing CaMKIV. […]

[2] = biological target: T1, CaMKIV transiently expressed in HEK293 cells (Homo sapiens, UniProt Q16566); assay: CREB luciferase reporter assay of CaMKIV activity in ionomycin-treated HEK293 cells transiently expressing CaMKIV; format: cell-based; conditions: 5 μM ionomycin, n=4 wells; for CREB activity, % of the control level: HEK293 expressing CaMKIV; for IC50: HEK293 transiently expressing CaMKIV, read-out: IC50 for inhibition of CaMKIV (CREB activity)
T1 construct: expressed in transfected cells; host or cells: HEK293
T1 sequence (Q16566 1-473): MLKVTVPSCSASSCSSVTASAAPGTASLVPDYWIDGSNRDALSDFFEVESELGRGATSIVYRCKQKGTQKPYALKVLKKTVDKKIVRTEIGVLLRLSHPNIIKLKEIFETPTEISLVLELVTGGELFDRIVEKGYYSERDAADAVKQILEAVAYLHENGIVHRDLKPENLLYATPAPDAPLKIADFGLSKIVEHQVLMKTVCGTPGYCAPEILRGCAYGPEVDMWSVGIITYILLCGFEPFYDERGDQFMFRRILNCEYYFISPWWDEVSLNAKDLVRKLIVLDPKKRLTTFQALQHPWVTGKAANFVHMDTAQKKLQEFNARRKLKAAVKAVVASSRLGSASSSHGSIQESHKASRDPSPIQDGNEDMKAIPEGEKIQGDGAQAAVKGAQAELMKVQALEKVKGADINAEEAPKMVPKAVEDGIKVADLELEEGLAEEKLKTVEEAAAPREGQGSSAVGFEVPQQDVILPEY
Method: as §1
The dose-dependent inhibitory effect of KN62 and KN93 on CaMKIV transiently expressed in HEK293 cells was determined. CaMKIV can activate CREB and stimulate CREB-mediated transcription through the direct phosphorylation of CREB on Ser-133. To measure the CaMKIV activity by CREB activity assay, the CaMKIV expression plasmids and a CREB luciferase reporter system were cotransfected into HEK293 cells in this study. The calcium ionophore ionomycin treatment can lead to an increase in intracellular Ca^2+ and Ca^2+/CaM levels, which influence CaMKIV activity in cells. Ionomycin (5 μM) can dramatically increase CREB activity in HEK293 cells expressing CaMKIV. The CREB activity is 5.5±0.2 times that of unstimulated cells (p<0.0001, compared to the unstimulated cells, n=4 wells, FIG. 8A).

[3] = tested on: pCREB in lamina I-II of the dorsal horn; assay: pCREB immunostaining in spinal cord after chronic morphine; format: in vivo, mouse; conditions: chronic morphine vs saline; both CaMKIV KO and wild-type mice; p<0.001
Method: Spinal cord slices at the lumbar region were prepared using standard histological methods. Slices were incubated with rabbit anti-pCREB IgG (1:250) (Calbiochem) or rabbit anti-MOR IgG (1:500) (ImmunoStar Incorporated) at 4° C. overnight. Followed by donkey anti-rabbit IgG conjugated with Alexa 488 (1:500) (Molecular Probes) for one hour at room temperature. Measurements were made from at least three randomly selected non-contiguous sections in each mouse (3-4 mice per treatment group), observed from coded slides and averaged so that each animal has a mean value for regional immunoreactivity. The total number and density of positive cells were measured in dorsal horn layers I-II and ventral horn layers VI-IX. All data were expressed as a ratio between cell number or density and unit area. Images were obtained with an Olympus microscope. Data were analyzed with ImagePro software (Media-Cybrenetics,).

[4] = tested on: pCREB expression in the spinal cord; assay: pCREB expression in spinal cord after chronic morphine (western blot); format: in vivo, mouse; conditions: chronic morphine 10 mg/kg s.c. daily for seven days
Method: Open field locomotor activity was recorded for 1 hr after injection followed by determination of hot plate and tail flick response latencies.
Spinal cords were dounce-homogenized (18 strokes) in 10 volumes of 10 mM Tris-Cl (pH 7.4), 320 mM Sucrose, and 1% SDS. The tissue homogenates were centrifuged at 21,000×g at 4° C. for 5 min. Equal amounts of protein from tissue samples were separated by 4-12% gradient SDS-PAGE (Invitrogen), followed by Western blotting with anti-MOR-1 (1:1000), anti-pCREB (1:1000) (Santa Cruz Biotechnology) or anti-phosphoserine antibody (for immunoprecipitated samples, 1:1000) (Sigma) followed by revelation with ECL (Amersham). Membranes (BioTrace PVDF, Pall Co.) were routinely stripped and re-probed with a monoclonal antibody for actin (1:5000, Sigma) blotting to ensure equal protein loading.

[5] = tested on: substantia gelatiosa (SG) neurons in lamina II of the dorsal horn; assay: Whole-cell patch clamp recording of sIPSCs in spinal cord slices; format: cell-based, mouse
Method: Postnatal mice (12-19 days old) were anesthetized with 1-2% halothane and the thoracic and lumbar spinal cord were dissected out and put into pre-equilibrated artificial cerebrospinal solution fluid (ACSF) at 1-4° C. The spinal cord was placed into the shallow groove of an agar block, and several drops of 20% gelatin were placed on the low-thoracic and high-lumbar segment to half-embed the spinal cord. The agar block, together with the half-embedded spinal cord, was glued on the stage of a vibratome with cyanoacrylate adhesive, and was immersed in the ice-cold ACSF. Then, transverse slices of the lumber spinal cord (350 μm) were prepared. Slices were transferred to a room temperature submerged recovery chamber with oxygenated (95% O2 and 5% CO2) solution containing (in mM): NaCl, 124; NaHCO3, 25; KCl, 4.4; KH2PO4, 1; CaCl2, 2; MgSO4, 2; glucose, 10. After one hr recovery, slices were placed in a recording chamber on the stage of an Axioskop 2FS microscope (Zeiss) equipped with infrared DIC optics for patch clamp recordings. Substantia gelatiosa (SG) could be identified as a translucent band capping the dorsal part of the gray matter under the microscope. Spontaneous inhibitory postsynaptic currents (sIPSCs) were recorded with an Axon 200B amplifier (Axon Instruments, CA). Recording electrodes (3-5 MΩ) contained a pipette solution composed of (in mM): Cs-gluconate, 120; NaCl, 5; MgCl2 1; EGTA, 0.5; Mg-ATP, 2; Na3GTP, 0.1; HEPES, 10; pH 7.2; 280-300 mOsmol. Access resistance was 15-30 MΩ and was monitored throughout the experiment. Data were discarded if access resistance changed more than 15% during an experiment. The membrane potential was held at […] throughout the experiment. A holding potential of +10 mV was used to record spontaneous inhibitory postsynaptic currents (sIPSCs).

mouse CaMKIV = assay: siRNA knock-down of CaMKIV expression in cultured cortical neurons (western blot); format: cell-based; conditions: 30 nM siRNA, 48 h after transfection, n=3 experiments
Method: Cortical neurons were prepared from postnatal day 0 (P0) mice. All procedures were reviewed and approved by the Institutional Animal Care and Use Committee at University of Toronto, in accordance with the guidelines of the Canadian Council on Animal Care. The Cerebral cortexes were dissected, minced, and trypsinized for 15 min using 0.125% trypsin (Invitrogen, CA). Cells were seeded at the density of 4˜5×10^5 cells/cm^2 onto 60 mm dishes or 96-well plates precoated with 50 μg/ml poly-D-lysine (Sigma, Mo.) in water, and grown in Neurobasal-A medium (Invitrogen, CA) supplemented with B27 and GlutaMax (Invitrogen, CA). The cultures were incubated at 37° C. in 95% air, 5% carbon dioxide with 95% humidity.
sequence 1: sense 5′-[…]tt-3′, antisense 5′-[…]tt-3′ and sequence 2: sense 5′-[…]tt-3′, antisense 5′-[…]tt-3′, respectively (Ambion, Tex.). The annealed siRNA was reconstituted at the concentration of 100 μM for transfection. […] Cells were harvested and analyzed 48 h after transfection.
The cultured cortical neurons were harvested and homogenized in lysis buffer containing proteinase inhibitor cocktail (Sigma, Mo.). Protein was quantified by Bradford assay, and electrophoresis of equal amounts of total protein was performed on SDS-polyacrylamide gels. […] The density of immunoblots was measured using NIH ImageJ software.

Compound	CREB activity, % of the control level ([2]; 0.01 μM inhibitor) [%]	CREB activity, % of the control level ([2]; 0.1 μM inhibitor) [%]	CREB activity, % of the control level ([2]; 1.0 μM inhibitor) [%]	CREB activity, % of the control level ([2]; 10 μM inhibitor) [%]	CREB activity, % of the control level ([2]; 50 μM inhibitor) [%]	CREB activity, % of the control level ([2]; 100 μM inhibitor) [%]	IC50 [2] [nM]	further results
C[C@H](CCC(=O)O)C[C@H](C)C[C@H](C)C(=O)/C=C(\O)[C@H](C)C[C@H](C)C/C=C/[C@@H](C)[C@@H](O)[C@@H](C)[C@@H](O)C[C@@H]1CC[C@@](C)([C@H]2CC[C@@](C)([C@@H](C)O)O2)O1 [Ionomycin, ionomycin]	–	–	–	–	–	–	–	CREB activity, times that of unstimulated cells [1]: 5.5±0.2 times
CN([C@@H](Cc1ccc(OS(=O)(=O)c2cccc3cnccc23)cc1)C(=O)N1CCN(c2ccccc2)CC1)S(=O)(=O)c1cccc2cnccc12 [KN62, 4-[(25)-2-[(5-isoquinolinylsulfonyl)methylamino]-3-oxo-3-(4-phrenyl-1-piperazinyl)propyl]phenyl isoquinolinesulfonic acid ester]	98.4±0.8	85.3±1.2	55.5±2.5	11.5±2.6	1.3±2.9	1.2±1.4	1060	–
COc1ccc(S(=O)(=O)N(CCO)c2ccccc2CN(C)CC=Cc2ccc(Cl)cc2)cc1 [KN93, N-[2-[[[3-(4-Chlorophenyl)-2-propenyl]methylamino]methyl]phenyl]-N-(2-hydroxyethyl)-4-methoxybenzenesulphonamide]	93.1±0.9	77.7±2.5	40.8±2.7	5.3±1.5	1.3±0.7	1.1±0.9	580	–
CN1CC[C@]23c4c5ccc(O)c4O[C@H]2[C@@H](O)C=C[C@H]3[C@H]1C5 [morphine]	–	–	–	–	–	–	–	pCREB in layer I and II of the dorsal horn (immunostaining) [3]: significantly increased; pCREB expression in spinal cord (western blot) ([4]; CaMKIV KO mice): absent; pCREB expression in spinal cord (western blot) ([4]; WT mice, p<0.001): significantly increased; decrease of the frequency of sIPSCs ([5]; acutely applied morphine, CaMKIV KO mice, n=6): 66.2±4.0%; decrease of the frequency of sIPSCs ([5]; acutely applied morphine, WT mice, n=7): 68.9±10.4%; decrease of the frequency of sIPSCs ([5]; slices pre-incubated in morphine at least 1 hour, CaMKIV KO mice, n=9): 55.7±6.9%; decrease of sIPSCs (in words) ([5]; slices pre-incubated in morphine at least 1 hour, WT mice, n=8, p>0.05): did not decrease
sequence 1: siRNA for mouse CaMKIV: sense 5′-GCAUGAUAUGCACUAAUAGtt-3′, antisense 5′-CUAUUAGUGCAUAUCAUGCtt-3′ (sense GCAUGAUAUGCACUAAUAGTT; antisense CUAUUAGUGCAUAUCAUGCTT; chemistry not given here)	–	–	–	–	–	–	–	expression level of CaMKIV, % of the control (mouse CaMKIV): 50.6±5.9%
sequence 2: siRNA for mouse CaMKIV: sense 5′-CGGCUGACUACAUUUCAAGtt-3′, antisense 5′-CUUGAAAUGUAGUCAGCCGtt-3′ (sense CGGCUGACUACAUUUCAAGTT; antisense CUUGAAAUGUAGUCAGCCGTT; chemistry not given here)	–	–	–	–	–	–	–	knock down of the expression of CaMKIV (in words) (mouse CaMKIV): could not knock down
